According to US9056867B2, “N-substituted heterocyclyl carboxamides” (NOVARTIS AG, priority 2011, dated 2015):
Like-named read-outs stand apart in the source and are kept apart here.

Biological target: T1, ΔF508-CFTR channel (Homo sapiens, UniProt P13569, DEL508-508)
T1 construct: expressed in transfected cells
Assay: CFTR potentiator assays (membrane potential assay, IonWorks Quattro assay, ion transport assay); the patent does not say which one gave the values
Assay type: cell-based
Details: cells stably expressing ΔF508-CFTR, forskolin present, read-out: Ki values in the data measurements described above
Text: CFTR activity can be quantified by measuring the transmembrane potential. The means for measuring the transmembrane potential in a biological system can employ a number of methods including electrophysiological and optical fluoresence-based membrane potential assays.
The optical membrane potential assay utilises a negatively charged potentiometric dye, such as the FLIPR membrane potential dye (FMP) (see Baxter D F, Kirk M, Garcia A F, Raimondi A, Holmqvist M H, Flint K K, Bojanic D, Distefano P S, Curtis R, Xie Y. ‘A novel membrane potential-sensitive fluorescent dye improves cell-based assays for ion channels.’ J Biomol Screen. 2002 Feb.; 7(1):79-85) which when extraceullar is bound to a quenching agent. Upon cellular depolarisation the negatively charged dye redistributes to the intracellular compartment, unbinding from the membrane impermeant quench agent, yielding an increase in fluorescence. This change in fluoresence is proportional to the change in transmembrane potential which can result from the activity of CFTR. The changes in fluorescence can be monitored in real time by an appropriately equipped fluorescence detector such as the FLIPR (fluorometric imaging plate reader) in 96 or 384-well microtitre plates.
Chinese hamster ovary (CHO) cells stably expressing the ΔF508-CFTR channel were used for membrane potential experiments. Cells were maintained at 37° C. in 5% v/v CO2 at 100% humidity in Modified Eagles medium (MEM) supplemenetd with 8% v/v foetal calf serum, 100 μg/ml methotrexate and 100 U/ml penicillin/streptomycin. Cells were grown in 225 cm^2 tissue culture flasks. For membrane potential assays cells were seeded into 96 well plates at 40,000 cells per well, allowed to adhere and then maintained at 26° C. for 48 h to facilitate channel insertion.
The membrane potential screening assay utilised a low chloride ion containing extraceullular solution (˜5 mM) combined with a double addition protocol. The first addition was of buffer with or without test compound followed 5 minutes later by an addition of forskolin (1-20 μM)—this protocol favours maximum chloride efflux in response to ΔF508-CFTR activation. The ΔF508-CFTR mediated chloride ion efflux leads to a membrane depolarisation which is optically monitoried by the FMP dye.
Low chloride extracellular (mM): 120 Na-gluconate, 1.2 CaCl2, 3.3 KH2PO4, 0.8 K2HPO4, 1.2 MgCl2, 10.0 D-glucose, 20.0 HEPES, pH 7.4 with NaOH
FMP dye: made up as per manufacuturers instructions in low chloride extracellular solution detailed above, at 10× final concentration, and stored as 1 mL aliquots at −20° C.
CFTR activity can also be quantified electrophysiologically using the whole-cell configuration of the patch clamp technique (Hamill et al Pflugers Acrhive 1981). This assay directly measures the currents associated with chloride flow through CFTR channels whilst either maintaining or adjusting the transmembrane voltage. This assay can use either single glass micropipettes or parallel planar arrays to measure CFTR activity from native or recombinant cell systems. Currents measured using parallel planar arrays can be quantified using an appropriately equipped instrument such as the IonWorks Quattro (Molecular Devices) or the Qpatch (Sophion). The Quattro system can measure CFTR currents from either a single cell per recording well (HT configuration) or alternatively from a population of 64 cells per well (Population Patch Clamp PPC) (Finkel A, Wittel A, Yang N, Handran S, Hughes J, Costantin J. ‘Population patch clamp improves data consistency and success rates in the measurement of ionic currents.’ J Biomol Screen. 2006 Aug.; 11(5):488-96).
Chinese hamster ovary (CHO) cells stably expressing the ΔF508-CFTR channel were used for IonWorks Quattro experiments. […]

T1 sequence (P13569 with tags, fused parts or gaps DEL508-508): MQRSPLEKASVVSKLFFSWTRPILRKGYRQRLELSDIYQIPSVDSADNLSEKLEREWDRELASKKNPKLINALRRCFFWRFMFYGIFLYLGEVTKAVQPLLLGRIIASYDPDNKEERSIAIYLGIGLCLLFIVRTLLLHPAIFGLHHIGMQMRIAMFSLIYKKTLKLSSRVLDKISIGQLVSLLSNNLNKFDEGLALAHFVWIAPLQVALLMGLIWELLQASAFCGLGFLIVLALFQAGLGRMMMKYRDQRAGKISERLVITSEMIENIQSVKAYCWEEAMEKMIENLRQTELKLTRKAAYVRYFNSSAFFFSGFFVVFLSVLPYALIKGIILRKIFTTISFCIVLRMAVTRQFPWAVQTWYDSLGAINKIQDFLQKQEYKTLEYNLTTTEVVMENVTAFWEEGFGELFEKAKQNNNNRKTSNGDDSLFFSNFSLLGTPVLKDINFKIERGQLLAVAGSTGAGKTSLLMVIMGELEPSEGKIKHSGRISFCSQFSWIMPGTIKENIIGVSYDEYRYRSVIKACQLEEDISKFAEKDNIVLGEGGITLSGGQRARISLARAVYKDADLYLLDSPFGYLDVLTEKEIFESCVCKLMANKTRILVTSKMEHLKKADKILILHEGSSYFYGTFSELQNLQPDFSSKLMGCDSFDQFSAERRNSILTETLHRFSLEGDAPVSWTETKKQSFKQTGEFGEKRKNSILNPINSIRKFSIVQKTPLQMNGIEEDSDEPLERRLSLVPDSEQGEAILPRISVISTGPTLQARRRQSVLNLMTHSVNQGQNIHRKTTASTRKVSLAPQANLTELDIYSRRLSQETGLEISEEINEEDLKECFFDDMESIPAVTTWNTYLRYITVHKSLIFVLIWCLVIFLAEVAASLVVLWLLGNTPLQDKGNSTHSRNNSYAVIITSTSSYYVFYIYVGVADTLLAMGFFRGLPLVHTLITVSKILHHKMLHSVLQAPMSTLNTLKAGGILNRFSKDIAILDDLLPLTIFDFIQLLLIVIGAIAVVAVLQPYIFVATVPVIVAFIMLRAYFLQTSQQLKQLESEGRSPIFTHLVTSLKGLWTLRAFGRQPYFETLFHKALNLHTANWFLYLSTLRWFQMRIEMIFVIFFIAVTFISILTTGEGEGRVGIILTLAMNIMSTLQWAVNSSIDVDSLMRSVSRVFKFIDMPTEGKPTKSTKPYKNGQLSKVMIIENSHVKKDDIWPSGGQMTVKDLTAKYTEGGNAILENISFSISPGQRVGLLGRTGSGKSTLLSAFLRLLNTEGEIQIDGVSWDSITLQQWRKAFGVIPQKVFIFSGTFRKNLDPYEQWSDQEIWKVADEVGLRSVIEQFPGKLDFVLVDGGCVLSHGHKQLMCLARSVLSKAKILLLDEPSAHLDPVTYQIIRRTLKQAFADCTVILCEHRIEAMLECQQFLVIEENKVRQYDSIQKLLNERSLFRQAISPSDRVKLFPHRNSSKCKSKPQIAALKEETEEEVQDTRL

Compound	Ki (values given in μM)	Ki (values in nM)
Nc1cc(C(F)(F)F)c(Br)nc1C(=O)Nc1cc(C(F)(F)F)n[nH]1 [Example 5, 3-Amino-6-bromo-5-trifluoromethyl-pyridine-2-carboxylic acid (5-trifluoromethyl-2H-pyrazol-3-yl)-amide]	0.07 µM	–
Nc1cc(C(F)(F)F)c(Br)nc1C(=O)Nc1ccn[nH]1 [Example 7, 3-Amino-6-bromo-5-trifluoromethyl-pyridine-2-carboxylic acid (2H-pyrazol-3-yl)-amide]	0.01 µM	–
Nc1nc(C(F)(F)F)c(Cl)nc1C(=O)Nc1ccn[nH]1 [Example 14, 3-Amino-6-chloro-5-trifluoromethyl-pyrazine-2-carboxylic acid (2H-pyrazole-3-yl)amide]	0.255 µM	–
Nc1cc(C(F)(F)F)c(Br)nc1C(=O)Nc1n[nH]c2nccnc12 [Example 18, 3-Amino-6-bromo-N-(1H-pyrazolo[4,3-b]pyrazin-3-yl)-5-(trifluoromethyl)picolinamide]	0.004 µM	–
Nc1nc(C(F)(F)F)c(Br)nc1C(=O)Nc1[nH]ncc1-c1ccccn1 [Example 19, 3-Amino-6-bromo-N-(4-(pyridin-2-yl)-1H-pyrazol-5-yl)-5-(trifluoromethyl)pyrazine-2-carboxamide]	1.55 µM	–
Nc1cc(C(F)(F)F)c(Cl)nc1C(=O)Nc1ccn[nH]1 [Example 22, 3-Amino-6-chloro-N-(1H-pyrazol-5-yl)-5-(trifluoromethyl)picolinamide]	0.025 µM	–
Nc1nc(C(F)(F)F)c(Br)nc1C(=O)Nc1nc(Cc2ccccc2)n[nH]1 [Example 24, 3-Amino-N-(3-benzyl-1H-1,2,4-triazol-5-yl)-6-bromo-5-(trifluoromethyl)pyrazin-2-carboxamide]	0.02 µM	–
Nc1cc(C(F)(F)F)c(-c2ccc(F)cc2)nc1C(=O)Nc1cc[nH]n1 [Example 25.1, 3-Amino-6-(4-fluorophenyl)-N-(1H-pyrazol-3-yl)-5-(trifluoromethyl)picolinamide]	–	0.0038 µM
Cc1cc(Cl)ccc1-c1nc(C(=O)Nc2ccn[nH]2)c(N)cc1C(F)(F)F [Example 25.2, 3-Amino-6-(4-chloro-2-methyl-phenyl)-5-trifluoro methyl-pyridine-2-carboxylic acid (2H-pyrazol-3-yl)-amide]	–	0.013 µM
COc1ncccc1-c1nc(C(=O)Nc2cc[nH]n2)c(N)cc1C(F)(F)F [Example 25.3, 5-Amino-2′-methoxy-3-trifluoro methyl-[2,3′]bipyridinyl-6-carboxylic acid (1H-pyrazol-3-yl)-amide]	–	0.014 µM
Nc1cc(C(F)(F)F)c(-c2cccc(CN3CCCC3=O)c2)nc1C(=O)Nc1ccn[nH]1 [Example 26.1, 3-Amino-6-[3-(2-oxo-pyrrolidin-1-ylmethyl)-phenyl]-5-trifluoromethyl-pyridine-2-carboxylic acid (2H-pyrazol-3-yl)-amide]	–	0.03 µM
COc1ccc(-c2nc(C(=O)Nc3ccn[nH]3)c(N)cc2C(F)(F)F)cn1 [Example 26.2, 5-Amino-6′-methoxy-3-trifluoromethyl-[2,3′]bipyridinyl-6-carboxylic acid (2H-pyrazol-3-yl)-amide]	–	0.045 µM
Cc1nnc(-c2ccc(-c3nc(C(=O)Nc4ccn[nH]4)c(N)cc3C(F)(F)F)cc2)o1 [Example 26.3, 3-Amino-6-[4-(5-methyl-[1,3,4]oxadiazol-2-yl)-phenyl]-5-trifluoromethyl-pyridine-2-carboxylic acid (2H-pyrazol-3-yl)-amide]	0.16 µM	–
Cc1cn[nH]c1NC(=O)c1nc(C(F)(F)F)c(C(F)(F)F)nc1N [Example 27, 3-Amino-5,6-bis-trifluoromethyl-pyrazine-2-carboxylic acid (4-methyl-2H-pyrazol-3-yl)-amide]	–	0.019 µM
